# Where a name gives a salt, the structure may show the parent alone.
# Test system: LI90 cells, a human stellate cell line
# Test: Collagen synthesis inhibition (3H-proline incorporation) in TGF-β1-stimulated LI90 cells
# Assay type: cell-based
# Details: 10 pM h-TGF-β1, 16 hours with test compound, 3H-proline labelling 24 hours, concentration at which T/C = 0.5, read-out: Collagen synthesis inhibitory activity IC50
# Procedure: The cultured cells were then washed with D-PBS(−) (DULBECCO's phosphate buffered saline), and subsequently further cultured for 3 days in MEM (Eagle's minimum essential medium) supplemented with 0.1% fetal bovine serum. The cultured cells were again washed with D-PBS(−), and cultured for 16 hours in MEM (0.1% fetal bovine serum with respect to a total MEM volume) which contained a test compound and 10 pM h-TGF-β1 (human transforming growth factor β1). Next, the cultured LI90 cells were washed with D-PBS(−), and cultured for 24 hours in MEM containing ^3H-proline (radioactive labelled compound) and 0.25 mM ascorbic acid. The produced collagen was labelled with RI (radioactive isotope). From this culture supernatant, an acid-soluble fraction was extracted. Radioactivity was measured for this fraction. The measured value was taken to be the collagen synthesis activity.
# Radioactivity of the culture supernatant cultured with the test compound was compared with that of the culture supernatant cultured without the test compound to calculate a collagen synthesis inhibitory activity (T/C) and determine a concentration (μM) at which collagen synthesis was inhibited by 50% (IC50=a concentration of the test compound at which T/C corresponded to 0.5). T/C=(Radioactivity of culture supernatant cultured with the test compound)/(radioactivity of culture supernatant cultured without the test compound)
row,Compound,IC50
1,"O=C(Nc1ccc(Oc2ccc(N3CCC(CC(=O)N4CCN(Cc5ccc6c(c5)OCO6)CC4)CC3)cc2)nc1)c1ccc(C(F)(F)F)cc1 [Example No. 319, N-[6-(4-{4-[2-(piperonyl-piperazin-1-yl)-2-oxoethyl]piperidin-1-yl}phenoxy)-pyridin-3-yl]-4-trifluoromethylbenzamide]",1.9 nM

# Same assay, conditions: Homo sapiens, 10 pM h-TGF-β1, 16 hours with test compound, 3H-proline labelling 24 hours, concentration at which T/C = 0.5, read-out: Collagen synthesis inhibitory activity IC50
row,Compound,IC50
1,"Cc1cc(N(C)CC(=O)N2CCN(Cc3ccc4c(c3)OCO4)CC2)ccc1Oc1ccc(NC(=O)c2ccc(C(F)(F)F)cc2)cn1 [Example No. 1503, N-[6-(4-{[2-(4-piperonylpiperazin-1-yl)-2-oxoethyl]methylamino}-2-methylphenoxy)pyridin-3-yl]-4-trifluoromethylbenzamide]",7.8 nM
2,"O=C(Nc1ccc(Cl)c(Cl)c1)c1ccc(Oc2ccc(CCC(=O)N3CCN(Cc4ccc5c(c4)OCO5)CC3)cc2)nc1 [Example No. 2100, 6-{4-[3-(4-piperonylpiperazin-1-yl)-3-oxopropyl]phenoxy}-N-(3,4-dichlorophenyl)nicotinamide]",79 nM
3,"O=C(Nc1ccc(Oc2ccc(CCC(=O)N3CCN(Cc4ccc5c(c4)OCO5)CC3)cc2)nc1)c1ccc(C(F)(F)F)cc1 [Example No. 1039, N-(6-{4-[3-(4-piperonylpiperazin-1-yl)-3-oxopropyl]phenoxy}pyridin-3-yl)-4-trifluoromethylbenzamide]",22 nM

# Test system: not given
# Test: not given
# Details: not given
row,Compound,melting point
1,"O=C(Nc1ccc(Oc2ccc(C(O)CN3CCOCC3)cc2)c(F)c1)c1ccc(Cl)c(Cl)c1 (centres unmarked) [compound 2715, 3,4-dichloro-N-{3-fluoro-4-[4-(1-hydroxy-2-morpholine-4-ylethyl)phenoxy]phenyl}benzamide]",169 to 170 °C
2,CN(C(=O)CN1CCOCC1)C1CCN(c2ccc(Oc3ccc(NC(=O)c4ccc(Cl)c(Cl)c4)cc3)cc2)CC1 [compound 2572],157 to 160 °C
3,O=C(CN1CCOCC1)c1ccc(Oc2ccc(NC(=O)c3ccc(Cl)c(Cl)c3)cc2F)cc1 [compound 2563],177 to 178 °C
4,"CCN(CC(=O)N1CCN(Cc2ccc3c(c2)OCO3)CC1)c1ccc(Oc2ccc(NS(=O)(=O)c3ccc(Cl)c(Cl)c3)cn2)c(F)c1 [compound 2695, N-[6-(4-{[2-(4-piperonylpiperazin-1-yl)-2-oxoethyl]ethylamino}-2-fluorophenoxy)pyridin-3-yl]-3,4-dichlorobenzenesulfonamide]",163 to 166 °C
5,CCN(CC(=O)N1CCN(Cc2ccccc2)CC1)c1ccc(Oc2ccc(NC(=O)c3ccc(C(F)(F)F)cc3)cn2)c(C)c1 (as salt: maleate) [compound 1513],165 to 167 °C
6,Cc1cc(N(C)CC(=O)N2CCN(Cc3ccoc3)CC2)ccc1Oc1ccc(NC(=O)c2ccc(Cl)c(Cl)c2)cn1 [compound 718],116.5 to 118 °C
7,"CC(=O)N(c1ccc(CCC(=O)N2CCN(Cc3ccc4c(c3)OCO4)CC2)cc1)c1ccc(NC(=O)c2ccc(Cl)c(Cl)c2)cn1 [compound 2099, N-[6-(Acetyl{4-[3-oxo-3-(4-piperonylpiperazin-1-yl)propyl]phenyl}amino)pyridin-3-yl]-3,4-dichlorobenzamide]",150 to 165 °C
8,Cc1cc(N(C)CC(=O)N2CCN(C(=O)c3ccc4c(c3)OCO4)CC2)ccc1Oc1ccc(NC(=O)c2ccc(Cl)c(Cl)c2)cn1 [compound 2054],133 to 135 °C
9,CCN(CC(=O)N1CCN(Cc2ccc3c(c2)OCO3)CC1)c1ccc(Oc2ccc(NC(=O)c3ccc(Cl)c(Cl)c3)cn2)c(F)c1 [compound 728],149 to 151 °C
10,"Br.CN(CC(=O)N1CCN(Cc2ccc3c(c2)OCO3)CC1)c1cc(F)c(Oc2ccc(C(=O)Nc3ccc(C(F)(F)F)cc3)cn2)cc1F [compound 1037, 6-(4-{[2-(4-Piperonylpiperazin-1-yl)-2-oxoethyl]methylamino}-2,5-difluorophenoxy)-N-(4-trifluoromethylphenyl)nicotinamide hydrobromide]",224.5 to 226 °C
11,CN(CC(=O)N1CCN(Cc2ccc3c(c2)OCO3)CC1)c1ccc(Oc2ccc(NC(=O)c3ccc(C(F)(F)F)cc3)cn2)c(F)c1 [compound 776],220 to 221 °C
12,"O=C(Nc1ccc(Oc2ccc(C3=CCN(CCCn4ccnc4)CC3)cc2)cc1)c1ccc(Cl)c(Cl)c1 [compound 2486, 3,4-Dichloro-N-(4-{4-[1-(3-imidazole-1-ylpropyl)-1,2,3,6-tetrahydropyridine-4-yl]phenoxy}phenyl)-benzamide]",169 to 171 °C
13,Cc1cc(N(C)CC(=O)N2CCN(Cc3ccoc3)CC2)ccc1Oc1ccc(NC(=O)c2ccc(C(F)(F)F)cc2)cn1 (as salt: hydrochloride) [compound 792],158.5 to 161 °C
14,Cc1cc(N(C)CC(=O)N2CCN(Cc3ccc4c(c3)OCO4)CC2)ccc1Oc1ccc(NC(=O)c2ccc(Cl)c(Cl)c2)cn1 (as salt: hydrochloride) [compound 1512],183 to 185 °C (dec.)
15,"Cc1cc(N(C)CC(=O)N2CCN(Cc3ccc4c(c3)OCO4)CC2)ccc1Oc1ccc(NC(=O)c2ccc(-n3cccc3)cc2)cn1 [compound 2711, N-[6-(4-{[2-(4-piperonylpiperazin-1-yl)-2-oxoethyl]methylamino}-2-methylphenoxy)pyridin-3-yl]-4-pyrrole-1-ylbenzamide]",163.1 to 166.5 °C
16,CC(C)(C)OC(=O)N1CCN(C(=O)CCc2ccc(Oc3ccc(NC(=O)c4ccc(Cl)c(Cl)c4)cc3F)cc2)CC1 [compound 464],155 to 157 °C

# From patent publication US8188277B2, “Aromatic compounds for suppressing the generation of collagen” (Otsuka Pharmaceutical Co., Ltd., priority 2004, dated 2012)
